Test results: patent US20250073226A1, “USE OF OPIOID FOR TREATMENT OF AUTISM SPECTRUM DISORDERS” (priority 2021, published 2025)

Tests used:
VPA model = assay: Confirmation of continuous effect: social behavior in VPA model 3 or 12 hours after administration; type: in vivo, mice; conditions: 0.003 mg/kg s.c.
Experimental: Saline or buprenorphine was subcutaneously administered to the VPA model in the same manner as in Example 1, and the amount of social behavior for 20 minutes from 3 hour after administration or for 20 minutes from 12 hours after administration was quantified. The improvement effect in social impairment by administration of 0.003 mg/kg of buprenorphine was observed even 3 hours and 12 hours after administration.

[1] = test system: dorsomedial periaqueductal gray (dmPAG); assay: Brain activation: c-Fos positive cells in dorsomedial periaqueductal gray; type: in vivo, mice; conditions: VPA model, 1 hour after administration
Experimental: Saline or buprenorphine at 0.0003, 0.003, or 0.03 mg/kg was administered to the VPA model, and 1 hour after that, the brain was extracted and immunostained with an anti-c-Fos antibody, and the number of c-Fos positive cells in nucleus accumens (NAc) and medial prefrontal cortex, which are brain regions known to promote social behavior, and dorsomedial periaqueductal gray (dmPAG), which is a brain region known to reduce social behavior and to be involved in the expression of analgesic effects, was quantified as the number of activated nerve cells.

For `CO[C@]12CC[C@@]3(C[C@@H]1[C@](C)(O)C(C)(C)C)[C@H]1Cc4ccc(O)c5c4[C@@]3(CCN1CC1CC1)[C@H]2O5` [buprenorphine, 21-cyclopropyl-7-a-[(S)-1-hydroxy-1,2,2-trimethylpropyl]-6,14-endo-ethano-6,7,8,14 tetrahydrooripavine], the “improvement effect in social impairment 3 hours after administration” value (VPA model; 20 minutes from 3 hour after administration) was “observed”, the “improvement effect in social impairment 12 hours after administration” value (VPA model; 20 minutes from 12 hours after administration) was “observed” and the “number of activated nerve cells (c-Fos positive cells)” value ([1]; 0.003 mg/kg) was “no change”. The “number of activated nerve cells (c-Fos positive cells)” value ([1]; 0.03 mg/kg) was “significantly increased”.
